Results taken from US12076421B2, “Assessment of coronary heart disease with carbon dioxide” (priority 2011, dated 2024).

What was measured:
[1] = test system: myocardium; test: Myocardial BOLD response to PaCO2 in human volunteers; assay type: in vivo, humans; settings: early human data, pCO2 change of 10 mmHg, from 35 mmHg to 45 mmHg
[2] = test system: myocardium; test: Myocardial BOLD MRI response to PaCO2 modulation while PaO2 is held constant; assay type: in vivo, canines
Protocol: In Examples 1-6, all imaging studies were performed in instrumented animals with a Doppler flow probe attached to the LAD coronary arteries for measurement of flow changes in response to CO2 and clinical dose of adenosine. In these studies, CO2 and O2 delivery were tightly controlled using […]. […] At each CO2 level, free-breathing and cardiac gated blood-oxygen-level-dependent (BOLD) acquisitions were prescribed at mid diastole and Doppler flow velocities were measured. Similar acquisitions were also performed with block sequences of CO2 levels; that is, CO2 levels were alternated between 40 and 50 mmHg and BOLD images (and corresponding Doppler flow velocities) were acquired at each CO2 level to assess the reproducibility of the signal changes associated with different CO2 levels. Each delivery of CO2 using […] was made in conjunction with arterial blood draw to determine the arterial blood CO2 levels. […] We assessed the difference between myocardial blood-oxygen-level dependent (BOLD) response under hypercarbia and normocarbia conditions in canines. The BOLD signal intensity is proportional to oxygen saturation. […] The lower panel depicts the difference as obtained by subtracting the signal under rest from that under stress. […] We further assessed the myocardial BOLD response to stepwise CO2 increase (ramp-up) in canines. […] To further evaluate vascular reactivity and coronary response to CO2, we measured the myocardial BOLD signal in response to block increases of CO2 in canines. Specifically, the myocardial BOLD signal was measured as the amount of CO2 administered to the canine subjects alternated between 40 mmHg CO2 and 50 mmHg CO2. […] The myocardium is supplied with blood by the left anterior descending (LAD) artery, the right coronary artery (RCA) and the left circumflex (LCX) artery. We measured the blood flow through each of these arteries in response to increasing CO2 supply. As shown in FIG. 6 and summarized in FIG. 7, in each of the three LAD, RCA and LCX arteries, there is a direct correlation between the amount of CO2 administered and the signal intensity; as the amount of administered CO2 increases, the signal intensity, signaling the blood flow, in each of the three arteries increases. Further, as shown in FIG. 6 and summarized in FIG. 8, there was no response to CO2 modulation in control territories such as blood, skeletal muscle or air. […] Vascular reactivity of three canines that were administered with adenosine was compared with the vascular reactivity of canines that were administered with CO2. As shown in FIGS. 10A and 10B, the hyperemic adenosine stress BOLD response was approximately 12% compared with 16% in response to CO2.

[3] = test system: myocardial blood flow (MBF); test: 13N-ammonia PET myocardial blood flow following pre-administration of caffeine; assay type: in vivo, canines; settings: for MBF response relative to rest: following caffeine administration
Protocol: These studies were conducted by prospectively and independently controlling PaCO2 and combining it with ^13N-ammonia Positron Emission Tomography (PET) measurements, and the extent of effect on MBF due to hypercapnia was compared to adenosine.
The objectives of these studies were twofold: to investigate the effects of PaCO2 on MBF while minimizing contributions from factors that can unintentionally reduce or inaccurately report on sensitivity of PaCO2 on MBF; and to assess whether an independent, precise and rapid establishment of physiologically tolerable level of hypercapnia provides equivalent hyperemia as adenosine, a commonly used pharmacological stimulus for cardiac stress testing with and without pre-administration of caffeine. To address these aims, a clinically relevant animal model was used along with validated strategies for (i) precisely and rapidly establishing desired levels of PaCO2, while holding PaO2 constant; (ii) quantifying MBF in vivo; and (iii) image analysis to derive MBF values across the different coronary supply territories. […] To determine whether MBF response to PaCO2 overlaps the same mechanistic path as adenosine, we quantified MBF under hypercapnia and adenosine following caffeine administration. Studies were conducted as described in Yang, H-J et al., J. Nucl. Med. 58: 953-960 (2017), which is hereby incorporated by reference in its entirety.

[4] = test system: myocardial blood flow (MBF); test: 13N-ammonia PET myocardial blood flow, canines without coronary stenosis; assay type: in vivo; settings: for mean MBF: absence of stenosis, hypercapnia ~25 mmHg increase in PaCO2, standard dose adenosine; for Global MBF normalized by rate-pressure-product: intact canines, in ml/min/g per mmHg·bpm
Protocol: We investigated whether a physiologically tolerable hypercapnia stimulus ( 25-mmHg increase in PaCO2) can increase myocardial blood flow (MBF) to that observed with adenosine in three groups of canines: (i) without coronary stenosis; (ii) subjected to non-flow limiting coronary stenosis; and (iii) following pre-administration of caffeine. These studies were conducted by prospectively and independently controlling PaCO2 and combining it with ^[…]-ammonia Positron Emission Tomography (PET) measurements, and the extent of effect on MBF due to hypercapnia was compared to adenosine. The objectives of these studies were twofold: to investigate the effects of PaCO2 on MBF while minimizing contributions from factors that can unintentionally reduce or inaccurately report on sensitivity of PaCO2 on MBF; and to assess whether an independent, precise and rapid establishment of physiologically tolerable level of hypercapnia provides equivalent hyperemia as adenosine, a commonly used pharmacological stimulus for cardiac stress testing with and without pre-administration of caffeine. To address these aims, a clinically relevant animal model was used along with validated strategies for (i) precisely and rapidly establishing desired levels of PaCO2, while holding PaO2 constant; (ii) quantifying MBF in vivo; and (iii) image analysis to derive MBF values across the different coronary supply territories. We compared our findings to the effects of standard dose of adenosine in the same animal models with and without coronary stenosis to quantify MBF and flow deficit regions under peak tolerable PaCO2. To determine whether MBF response to PaCO2 overlaps the same mechanistic path as adenosine, we quantified MBF under hypercapnia and adenosine following caffeine administration. Studies were conducted as described in Yang, H-J et al., J. Nucl. Med. 58: 953-960 (2017), which is hereby incorporated by reference in its entirety. […] FIG. 13 is a table summarizing the mean arterial CO2, O2 and hemodynamic variables of interest in Group Intact. FIG. 14A-14D show the mean global MBF and MPR response to hypercapnia in relation to adenosine. Global MBF under adenosine and hypercapnia were both higher than at rest (p<0.05, for both) and were not different from one another (p=0.33). […] Similar observations were evident for regional MBF and MPR with hypercapnia and adenosine. The observed range of MBF at rest (0.44 to 1.93 ml/min/g) and adenosine (0.47 to 5.10 ml/min/g) and range of MPR under adenosine (1.20 to 4.57) across the animals is consistent with previous reports (Kuhle, W. G. et al., Circulation 86:1004-1017 (1992)).

[5] = test system: myocardial blood flow (MBF); test: 13N-ammonia PET myocardial blood flow and perfusion defect, canines with LAD coronary stenosis; assay type: in vivo; settings: for regional MBF versus rest: all territories (LAD, LCx, RCA); for regional MBF versus rest / MBF increase in the LAD territory: p<0.05; for MBF increase in the LAD territory: compared with LCx and RCA territories
Protocol: We investigated whether a physiologically tolerable hypercapnia stimulus ( 25-mmHg increase in PaCO2) can increase myocardial blood flow (MBF) to that observed with adenosine in three groups of canines: (i) without coronary stenosis; (ii) subjected to non-flow limiting coronary stenosis; and (iii) following pre-administration of caffeine. These studies were conducted by prospectively and independently controlling PaCO2 and combining it with ^[…]-ammonia Positron Emission Tomography (PET) measurements, and the extent of effect on MBF due to hypercapnia was compared to adenosine. The objectives of these studies were twofold: to investigate the effects of PaCO2 on MBF while minimizing contributions from factors that can unintentionally reduce or inaccurately report on sensitivity of PaCO2 on MBF; and to assess whether an independent, precise and rapid establishment of physiologically tolerable level of hypercapnia provides equivalent hyperemia as adenosine, a commonly used pharmacological stimulus for cardiac stress testing with and without pre-administration of caffeine. To address these aims, a clinically relevant animal model was used along with validated strategies for (i) precisely and rapidly establishing desired levels of PaCO2, while holding PaO2 constant; (ii) quantifying MBF in vivo; and (iii) image analysis to derive MBF values across the different coronary supply territories. We compared our findings to the effects of standard dose of adenosine in the same animal models with and without coronary stenosis to quantify MBF and flow deficit regions under peak tolerable PaCO2. To determine whether MBF response to PaCO2 overlaps the same mechanistic path as adenosine, we quantified MBF under hypercapnia and adenosine following caffeine administration. Studies were conducted as described in Yang, H-J et al., J. Nucl. Med. 58: 953-960 (2017), which is hereby incorporated by reference in its entirety. […] FIGS. 16A, 16B, 16E show the mean regional MBF in LAD, left circumflex artery (LCx) and right coronary artery (RCA) supply territories at rest, hypercapnia and adenosine. MBF values were not different at rest among the different supply territories (p>0.4, for all). […] MBF under hypercapnia was not different between the LCx and RCA territories (hypercapnia: p=0.21); the same was true under adenosine (p=0.50). For each myocardial supply territory, MBF under hypercapnia and adenosine were not different (p=1.00, for all). […] MPR under hypercapnia was not different between the LCx and RCA territories (hypercapnia: p=0.59); the same was true under adenosine (p=0.34). For each myocardial supply territory, MPR under hypercapnia and adenosine were not different (p>0.5 for all). […] Perfusion defect volumes and visual scoring under hypercapnia vs. adenosine were determined. TRP obtained under hypercapnia and adenosine were not different: 25±19% (hypercapnia) vs. 27±15% (adenosine); p=0.12. Direct comparison of TRP within the same subjects under hypercapnia and adenosine were highly correlated (R=0.85, p<0.05) and were in good agreement (bias=2%). Similar trends were observed from visual scoring analysis. No difference between the scores from hypercapnia and adenosine was observed from a paired sampled Wilcoxon signed rank test (p=0.26). Visual scores between hypercapnia and adenosine were concordant with most segments falling onto the diagonal of the scoring matrix (FIG. 18).

[6] = test system: left anterior descending (LAD) artery; test: Doppler flow in the left anterior descending artery in response to PaCO2 modulation; assay type: in vivo, canines; settings: increasing amount of administered CO2, PaO2 held constant
Protocol: (§1) In Examples 1-6, all imaging studies were performed in instrumented animals with a Doppler flow probe attached to the LAD coronary arteries for measurement of flow changes in response to CO2 and clinical dose of adenosine. In these studies, CO2 and O2 delivery were tightly controlled using Respiract. CO2 values were incremented in steps of 10 mmHg starting from 30 mmHg to 60 mmHg and were ramped down in decrements of 10 mmHg. At each CO2 level, free-breathing and cardiac gated blood-oxygen-level-dependent (BOLD) acquisitions were prescribed at mid diastole and Doppler flow velocities were measured. Similar acquisitions were also performed with block sequences of CO2 levels; that is, CO2 levels were alternated between 40 and 50 mmHg and BOLD images (and corresponding Doppler flow velocities) were acquired at each CO2 level to assess the reproducibility of the signal changes associated with different CO2 levels. Each delivery of CO2 using Respiract was made in conjunction with arterial blood draw to determine the arterial blood CO2 levels.
The Doppler flow was measured in the left anterior descending (LAD) artery. […] The relative change in coronary flow velocity was directly proportional to the amount of CO2 administered.

[7] = test system: LAD coronary arteries; test: Epicardial flow enhancement, Carbogen against clinical dose of adenosine; assay type: in vivo, dogs; settings: Carbogen with ETCO2 reaching 48-50 mm Hg
Protocol: as §1
In detail, the color images (lower panel of FIG. 1) are color-coded to the signal intensities of grayscale images (above). The darker colors (blue/black) represent territories of baseline myocardial oxygenation and the brighter regions represent those regions that are hyperemic. […]

SMILES | hyperemic response (BOLD) [1] | BOLD signal intensity ([2]; block increase from 40 mmHg CO2 to 50 mmHg CO2, canines) | BOLD signal intensity ([2]; hypercarbia (60 mm Hg) vs normocarbia (30 mmHg), canines) | signal intensity, signaling the blood flow, in LAD, RCA and LCX arteries ([2]; increasing amount of administered CO2) | BOLD signal intensity ([2]; stepwise CO2 increase (ramp-up), canines) | MBF response relative to rest [3] | mean MBF [4] [mL/min/g] | Global MBF normalized by rate-pressure-product [4] | total reduction in perfusion volume (TRP, % LV) between stress and rest [5] [%] | regional MBF versus rest [5] | MBF increase in the LAD territory [5] | Doppler flow in LAD artery [6] | hyperemic BOLD response ([2]; canines, mean, adenosine stress in three canines) | global MPR ([3]; under caffeine, p<0.05) | epicardial flow enhancement response [7] | resting MBF normalized by rate-pressure-product ([3]; post-administration of caffeine (1.5×10^−5 pre-administration, p=0.03))
O=C=O [CO2, carbon dioxide] | approximately 11% | increase in BOLD signal intensity | increase in BOLD signal intensity | increases | increases | able to induce myocardial hyperemia | 2.1 ± 0.9 | 1.26×10^−5±0.56×10^−5 | 25±19 | increased | significantly lower than in the LCx and RCA territories | increases |  |  |  | 
Nc1ncnc2c1ncn2[C@@H]1O[C@H](CO)[C@@H](O)[C@H]1O [adenosine, reference compound] |  |  |  |  |  | no change in MBF | 2.2 ± 1.1 | 1.16×10^−5±0.80×10^−5 | 27±15 | increased | significantly lower than in the LCx and RCA territories |  | approximately 12% | lower than under hypercapnia | about 20% | 
Cn1c(=O)c2c(ncn2C)n(C)c1=O [caffeine] |  |  |  |  |  |  |  |  |  |  |  |  |  |  |  | 1.0×10^−5
